# Measured values: publication PMC10252594 (Cancers, 2023)
# Values joined by “and” are separate entries in the source; they are usually repeats but may differ in a detail not shown here. Equal values may be shown once. Read-outs that look alike come from different tables or passages of the source.
# Key:
# [1] = Tolerated dose of RM-581 in mice (dose escalation); assay type: in vivo
# Description: It is important to note that animal death is not an accepted endpoint for CCAC. RM-581 was first dissolved in DMSO, and PG was added to obtain a final 8% concentration of co-solvent DMSO. The injected volume was 0.1 mL, but the number of injections ranged from 1, 2, or 3 to obtain the expected dose. Each week for […] consecutive weeks, an increased dose (60, 120, 240, 360, 480, 600, or 720 mg/kg) of RM-581 was administered by gavage (PO), and the mice were weighed and observed for 7 days to notice any signs of toxicity. The protocol was applied to four groups (Gr) divided as follows: Gr-1: 5 female mice received the vehicle only; Gr-2: 5 male mice received the vehicle only; Gr-3: 5 female mice treated with RM-581; and Gr-4: 5 male mice treated with RM-581.
# [2] = test system: LAPC-4 xenografts; experiment: Cholesterol determination in tumor, liver, plasma (kit, method A); assay type: in vivo, mice; settings: 10 mg/kg PO, NS vs CTL
# Description: A cholesterol quantification kit provided by Sigma-Aldrich (Catalog Number MAK043) was used following the manufacturer’s instructions to determine the concentration of total cholesterol, free cholesterol, and cholesteryl ester in samples. The cholesterol contents were measured in samples from two different protocols. […] Secondly, in tumor, liver, and plasma obtained at the end of the LAPC-4 xenograft experiment (control group and the group treated with RM-581 at 10 mg/kg/PO).
# [3] = Dosage of RM-581 in tumors and plasma (LC-MS/MS); assay type: in vivo, mice; settings: for RM-581 in Plasma / RM-581 in Tumor / concentration at 3 h: 3 h after last treatment; for concentration at 3 h / Kp at 3 h: nude, mouse; for Kp at 3 h: tumor/plasma, ng/g = ng/mL assumed, read-out: Concentration Index (Tumor/Plasma)
# Description: The mice were weighed at the start and end of the protocol. Tumor area (mm^2) was calculated twice a week using two perpendicular diameters (L and W), which were recorded using a caliper, and the formula L/2 × W/2 × π. The area measured on the first day of treatment was fixed at 100%. At the end of the studies and 3 h after the last treatment, the mice were terminally anesthetized, and their final body weights were measured. Tumors, liver, kidney, and total prostate were collected from mice during necropsy, while blood was collected by cardiac puncture. Tissues and plasma were immediately frozen at −80 °C until analysis.
# [4] = test system: DU-145; parameters: method as in PMID 34681843; settings: DU-145, AR negative, three days, MTS; cited from earlier work
smiles,measurement,setting,value
C#C[C@]1(O)CC[C@H]2[C@@H]3CCc4cc(OC)c(N5CCN(C(=O)[C@@H]6CCCN6C(=O)c6ccc7ccccc7n6)CC5)cc4[C@H]3CC[C@@]21C [RM-581],therapeutic index,[1]; assuming effective dose of 30 mg/kg,> 24
same,"signs of toxicity, dose escalation","[1]; normal male and female mice, 60, 120, 240, 360, 480, 600 and 720 mg/kg PO weekly",no signs of toxicity
same,"body weight, treated vs control groups","[1]; normal mice, dose escalation up to 720 mg/kg PO, 7 weeks",no significant body weight difference
same,"F-CHOL (free cholesterol), liver",[2],2410 ± 10 (NS) µg/g
same,"F-CHOL (free cholesterol), plasma",[2],403 ± 120 (NS) µg/mL
same,"F-CHOL (free cholesterol), tumor",[2],3270 ± 236 (NS) µg/g
same,"T-CHOL (total cholesterol), liver",[2],2440 ± 475 (NS) µg/g
same,"T-CHOL (total cholesterol), plasma",[2],1820 ± 500 (NS) µg/mL
same,"T-CHOL (total cholesterol), tumor",[2],4543 ± 2476 (NS) µg/g
same,RM-581 in Plasma,[3]; 3 mg/kg PO,15 ng/mL and 0.023 µM
same,RM-581 in Tumor,[3]; 3 mg/kg PO,50 ng/g and 0.077 µM
same,RM-581 in Plasma,[3]; 10 mg/kg PO,30 ng/mL and 0.046 µM
same,RM-581 in Tumor,[3]; 10 mg/kg PO,300 ng/g and 0.464 µM
same,RM-581 in Plasma,[3]; 30 mg/kg PO,171 ng/mL and 0.265 µM
same,RM-581 in Tumor,[3]; 30 mg/kg PO,940 ng/g and 1.465 µM
same,concentration at 3 h,"[3]; plasma, 30 mg/kg PO, read-out: RM-581 in Plasma",171 ng/mL
same,concentration at 3 h,"[3]; plasma, PO, read-out: RM-581 in Plasma",15 ng/mL
same,Kp at 3 h,[3]; 3 mg/kg PO,3.3
same,Kp at 3 h,[3]; 10 mg/kg PO,10
same,Kp at 3 h,[3]; 30 mg/kg PO,5.5
same,concentration at 3 h,"[3]; tumor, 30 mg/kg PO, read-out: RM-581 in Tumor",940 ng/g
same,concentration at 3 h,"[3]; tumor, PO, read-out: RM-581 in Tumor",50 ng/g
same,IC50,[4],4.4 µM
